Laboratory results: US8344009B2, “Substituted phenoxy thiazolidinediones as estrogen related receptor-á modulators” (priority 2007, dated 2013)
Read-outs that look alike come from different tables or passages of the source.

Target: T1, ERR1 (also known as ERR-α or ERR-1) (Homo sapiens, UniProt P11474)
T1 sequence (P11474 193-421 limits assumed): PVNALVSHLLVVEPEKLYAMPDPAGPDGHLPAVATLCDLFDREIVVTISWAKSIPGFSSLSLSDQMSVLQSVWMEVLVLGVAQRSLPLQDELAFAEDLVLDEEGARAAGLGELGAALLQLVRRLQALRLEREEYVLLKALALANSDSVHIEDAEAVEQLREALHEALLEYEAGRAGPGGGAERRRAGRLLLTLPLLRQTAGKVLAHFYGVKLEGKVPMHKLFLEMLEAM
Assay: TR-FRET assay (disruption of co-activator peptide binding to ERR1 LBD)
Format: biochemical
Protocol: Time-Resolved Fluorescence Resonance Energy Transfer (TR-FRET) experiments were performed to examine the functional response of ERR1 (also known as ERR-α or ERR-1) ligands. The TR-FRET assay described herein relied on the conformation of ERR1 for binding to a co-activator peptide: when a test compound binds to ERR1 and alters its conformation, it can disrupt the binding of the co-activator peptide. The components of this homogeneous secondary assay included: the ^6His-tagged-ERR1LBD, a GST-labeled-hSRC2 co-activator polypeptide and a fluorescent donor/acceptor pair from CIS bio international htrf/bioassays (Bedford, Mass.) using both an α-GST Europium Cryptate (Eu) label and an α^6His-XL665 (allophycocyanin) fluorophore.
Reactions were allowed to reach equilibrium at 25° C. for 4-18 hours before collecting data on the Analyst from LJL Biosystems (Molecular Devices Sunnyvale, Calif.). […] Dose response curves were fitted using a hyperbolic equation and the data reported is the average of 3 independent experiments.

[1] = average of 3 independent experiments, read-out: TR-FRET EC50

Row | Structure (SMILES) | EC50 [1] | EC50
1 | COc1cc(/C=C2\SC(=O)NC2=O)ccc1Oc1ccc(S(C)(=O)=O)cc1Cl [Compound 4, 5-[4-(2-Chloro-4-methanesulfonyl-phenoxy)-3-methoxy-benzylidene]-thiazolidine-2,4-dione] | 550 nM | 
2 | COc1cc(/C=C2\SC(=O)NC2=O)ccc1Oc1ccc(C(F)(F)F)cc1Cl [Compound 2, 5-[4-(2-Chloro-4-trifluoromethyl-phenoxy)-3-methoxy-benzylidene]-thiazolidine-2,4-dione] |  | 130 nM
3 | N#Cc1ccc(Oc2ccc(/C=C3\SC(=O)NC3=O)cc2Br)c(C(F)(F)F)c1 [Compound 16, 4-[2-Bromo-4-(2,4-dioxo-thiazolidin-5-ylidenemethyl)-phenoxy]-3-trifluoromethyl-benzonitrile] | 600 nM | 
4 | N#Cc1ccc(Oc2ccc(/C=C3\SC(=O)NC3=O)cc2F)c2ccccc12 [Compound 17, 4-[4-(2,4-Dioxo-thiazolidin-5-ylidenemethyl)-2-fluoro-phenoxy]-naphthalene-1-carbonitrile] | 100 nM | 
5 | N#Cc1ccc(Oc2ccc(/C=C3\SC(=O)NC3=O)cc2Cl)c(C(F)(F)F)c1 [Compound 18, 4-[2-Chloro-4-(2,4-dioxo-thiazolidin-5-ylidenemethyl)-phenoxy]-3-trifluoromethyl-benzonitrile] | 520 nM | 
6 | COc1cc(/C=C2\SC(=O)NC2=O)ccc1Oc1ccc(C#N)c2ccccc12 [Compound 19, 4-[4-(2,4-Dioxothiazolidin-5-ylidenemethyl)-2-methoxyphenoxy]naphthalene-1-carbonitrile] |  | 120 nM
7 | COC(=O)c1cc(C(F)(F)F)ccc1Oc1ccc(/C=C2\SC(=O)NC2=O)cc1OC [Compound 9, 2-[4-(2,4-Dioxo-thiazolidin-5-ylidenemethyl)-2-methoxy-phenoxy]-5-trifluoromethyl-benzoic acid methyl ester] |  | 480 nM
8 | COc1cc(/C=C2\SC(=O)NC2=O)ccc1Oc1ccc(Br)cc1C(F)(F)F [Compound 5, 5-[4-(4-Bromo-2-trifluoromethyl-phenoxy)-3-methoxy-benzylidene]-thiazolidine-2,4-dione] | 570 nM | 
9 | N#Cc1ccc(Oc2ccc(/C=C3\SC(=O)NC3=O)cc2C(F)(F)F)c(C(F)(F)F)c1 [Compound 26, 4-[4-(2,4-Dioxo-thiazolidin-5-ylidenemethyl)-2-trifluoromethyl-phenoxy]-3-trifluoromethyl-benzonitrile] | 1000 nM | 
10 | COc1cc(/C=C2\SC(=O)NC2=O)ccc1Oc1ccc(Cl)cc1C(F)(F)F [Compound 30, 5-[4-(4-Chloro-2-trifluoromethyl-phenoxy)-3-methoxy-benzylidene]-thiazolidine-2,4-dione] | 8 nM | 
11 | O=C1NC(=O)/C(=C/c2ccc(Oc3ccc(Cl)cc3C(F)(F)F)c(F)c2)S1 [Compound 31, 5-[4-(4-Chloro-2-trifluoromethyl-phenoxy)-3-fluoro-benzylidene]thiazolidine-2,4-dione] | 33 nM | 
12 | COC(=O)c1ccc(Oc2ccc(/C=C3\SC(=O)NC3=O)cc2OC)c2ccccc12 [Compound 24] |  | 1 nM
13 | COc1cc(/C=C2\SC(=O)NC2=O)ccc1Oc1ccc(S(C)(=O)=O)cc1Br [Compound 3, 5-[4-(2-Bromo-4-methanesulfonyl-phenoxy)-3-methoxy-benzylidene]-thiazolidine-2,4-dione] | 1030 nM | 
14 | COc1cc(/C=C2\SC(=O)NC2=O)ccc1Oc1ccc(C(F)(F)F)cc1C#N [Compound 8, 2-[4-(2,4-Dioxo-thiazolidin-5-ylidenemethyl)-2-methoxy-phenoxy]-5-trifluoromethyl-benzonitrile] |  | 550 nM
15 | CCOc1cc(/C=C2\SC(=O)NC2=O)ccc1Oc1ccc(C#N)cc1C(F)(F)F [Compound 13, 4-[4-(2,4-Dioxo-thiazolidin-5-ylidenemethyl)-2-ethoxy-phenoxy]-3-trifluoromethyl-benzonitrile] | 180 nM | 
16 | CCOc1cc(/C=C2\SC(=O)NC2=O)ccc1Oc1ccc(C#N)c2ccccc12 [Compound 15, 4-[4-(2,4-Dioxo-thiazolidin-5-ylidenemethyl)-2-ethoxy-phenoxy]-naphthalene-1-carbonitrile] | 37 nM | 
17 | COc1cc(/C=C2\SC(=O)NC2=O)ccc1Oc1ccc(C(N)=O)cc1C(F)(F)F [Compound 6, 4-[4-(2,4-Dioxo-thiazolidin-5-ylidenemethyl)-2-methoxy-phenoxy]-3-trifluoromethyl-benzamide] | 510 nM | 
18 | N#Cc1ccc(Oc2ccc(/C=C3\SC(=O)NC3=O)cc2F)c(C(F)(F)F)c1 [Compound 12, 4-[4-(2,4-Dioxo-thiazolidin-5-ylidenemethyl)-2-fluoro-phenoxy]-3-trifluoromethyl-benzonitrile] | 150 nM | 
19 | Cc1cc(/C=C2\SC(=O)NC2=O)ccc1Oc1ccc(C(N)=O)cc1C(F)(F)F [Compound 28, 4-[4-(2,4-Dioxo-thiazolidin-5-ylidenemethyl)-2-methyl-phenoxy]-3-trifluoromethyl-benzamide] | 440 nM | 
20 | COc1cc(/C=C2\OC(=O)NC2=O)ccc1Oc1ccc(C#N)c2ccccc12 [Compound 23, 4-[4-(2,4-Dioxo-oxazolidin-5-ylidenemethyl)-2-methoxy-phenoxy]-naphthalene-1-carbonitrile] | 480 nM | 
21 | COc1cc(/C=C2\SC(=O)NC2=O)ccc1Oc1ccc(C(F)(F)F)cc1Br [Compound 20, 5-[4-(2-Bromo-4-trifluoromethylphenoxy)-3-methoxybenzylidene]thiazolidine-2,4-dione] |  | 380 nM
22 | COC(=O)c1ccc(Oc2ccc(/C=C3\SC(=O)NC3=O)cc2OC)c(C(F)(F)F)c1 [Compound 10, 4-[4-(2,4-Dioxo-thiazolidin-5-ylidenemethyl)-2-methoxy-phenoxy]-3-trifluoromethyl-benzoic acid methyl ester] |  | 12 nM
23 | Cc1cc(/C=C2\SC(=O)NC2=O)ccc1Oc1ccc(C#N)c2ccccc12 [Compound 11, 4-[4-(2,4-Dioxo-thiazolidin-5-ylidenemethyl)-2-methyl-phenoxy]-naphthalene-1-carbonitrile] | 480 nM | 
24 | COc1cc(/C=C2\SC(=O)NC2=O)ccc1Oc1ccc(C#N)cc1Cl [Compound 21, 3-Chloro-4-[4-(2,4-dioxothiazolidin-5-ylidenemethyl)-2-methoxyphenoxy]benzonitrile] |  | 430 nM
25 | N#Cc1ccc(Oc2ccc(/C=C3\SC(=O)NC3=O)cc2OC(F)(F)F)c(C(F)(F)F)c1 [Compound 29, 4-[4-(2,4-Dioxo-thiazolidin-5-ylidenemethyl)-2-trifluoromethoxy-phenoxy]-3-trifluoromethyl-benzonitrile] | 180 nM | 
26 | CCOc1cc(/C=C2\SC(=O)NC2=O)ccc1Oc1ccc(C(N)=O)cc1C(F)(F)F [Compound 27, 4-[4-(2,4-Dioxo-thiazolidin-5-ylidenemethyl)-2-ethoxy-phenoxy]-3-trifluoromethyl-benzamide] | 330 nM | 
27 | COc1cc(/C=C2\SC(=O)NC2=O)ccc1Oc1ccc(C#N)cc1Br [Compound 22, 3-Bromo-4-[4-(2,4-dioxothiazolidin-5-ylidenemethyl)-2-methoxyphenoxy]benzonitrile] |  | 480 nM
28 | Cc1cc(/C=C2\SC(=O)NC2=O)ccc1Oc1ccc(C#N)cc1C(F)(F)F [Compound 14, 4-[4-(2,4-Dioxo-thiazolidin-5-ylidenemethyl)-2-methyl-phenoxy]-3-trifluoromethyl-benzonitrile] | 200 nM | 
